PMC9025336 (Antibiotics, 2022)
Converted amounts (≈) assume the structure as drawn. Square brackets hold non-standard residues; d marks the D form. Ends that are not written are not given here. Peptide text beside a SMILES is read from it.

Key:
[1] = target: 70S ribosome extract of E. coli BW25113 (E. coli BW25113 (endogenous)); test: fluorescence polarisation; 2-fold dilution series of the ribosome extract (23 steps) mixed with cf-labeled peptide (20 µL, 40 nmol/L) in ribosome preparation buffer (20 mmol/L Hepes-KOH, 6 mmol/L MgCl2, 30 mmol/L NH4Cl, pH 7.6); 28 ± 1 °C, 90 min; Kd = x0 of a dose-response fit
[2] = target: 70S ribosome extract of E. coli Rosetta DE3 pLysS (E. coli Rosetta DE3 pLysS (endogenous)); test: as above
[3] = tested on: 70S ribosome, ribosomal binding site of Api805; test: Fluorescence polarization competition with cf-Api805; parameters: species or system Escherichia coli; conditions: Figure S2, twice in triplicate
Experimental: Ki was determined for ribosome extracts using cf-labeled and unlabeled peptides in ribosome preparation buffer. Black 384-well plates were prepared as described above. Unlabeled peptides or antibiotics (20 μL, 656 μmol/L) were added and 2-fold serially diluted in 23 wells in ribosome preparation buffer. […] The fluorescence polarization was measured on a […] microplate reader in the top read position (λexc = 485 nm, λem = 535 nm) in triplicate on at least two different days. […] Inhibition constants, Ki, were calculated as described by Mathias and Jung. page 9: 140 140 120 120 100 100 80 80 60 60 40 40 […]. […]. […] 0 0 -20 -20 10 -2 1 10 2 10 4 10 6 10 -2 1 10 2 10 4 10 6 Pept ide Concent r at ion [ nM] Pept ide Concent r at ion [ nM] 140 140 120 120 100 100 80 80 60 60 40 40 20 Chlor […] ol vs. […] -20 -20 10 -2 1 10 2 10 4 10 6 10 -2 1 10 2 10 4 10 6 Ant ibiot ic Concent r at ion [ nM] Antibiotic Concentration [nM] 140 120 100 80 60 40 […] -20 10 -2 1 10 2 10 4 10 6 Ant ibiot ic Concent r at ion [ nM] Figure S2. […] tested as control in competition with Api137 or erythromycin. Experiments were done twice in triplicates. Error bars show the standard deviation of all six replicates. The horizontal dotted line separates positive and negative ranges on the Y-axis. - S9 - (also on this page, place not known: […]

[4] = tested on: E. coli Rosetta DE3 pLysS; test: MIC, liquid broth microdilution; format: cell-based, Escherichia coli; conditions: 25% MHBII medium, 7.5 × 10^6 CFU/mL, 37 °C, 20 ± 2 h, turbidity 600 nm, at least twice in triplicate
Experimental: (§1) The minimal inhibitory concentrations (MIC) were determined at least twice in triplicate using a liquid broth microdilution assay in sterile 96-well plates and a total volume of 100 μL per well. Aqueous peptide solutions were serially 2-fold diluted in 25% MHBII or 33% TSB medium in a volume of 50 µL. An overnight culture was diluted in 25% MHBII or 33% TSB medium to 1.5 × 10^7 CFU/mL, and an aliquot of 50 μL was added to each well. The final cell count in each well was 7.5 × 10^6 CFU/mL. The plates were incubated at 37 °C for 20 ± 2 h. The turbidity of each well was measured at a wavelength of 600 nm. The MIC was defined as the lowest peptide concentration where the turbidity was identical to medium only.

E. coli BW25113 = format: cell-based, Escherichia coli; conditions: BW25113, 2 h
Experimental: as §1, with “The plates were incubated at 37 °C for 20 ± 2 h.” left out

[5] = tested on: 70S ribosome extract of E. coli BW25113; test: Fluorescence polarization, Kd of cf-labeled peptides; format: binding, Escherichia coli
Experimental: (§2) E. coli BW25113 and E. coli Rosetta pLysS were cultivated in LB medium and harvested at an OD600 of ~4 by centrifugation (5000× g, 30 min, 4 °C). The cell pellets were washed by resuspension in ribosome preparation buffer (20 mmol/L Hepes-KOH, 6 mmol/L MgCl2, 30 mmol/L NH4Cl, pH 7.6, 4°C) and subsequent centrifugation (5000× g, 30 min, 4 °C). Cell pellets were suspended in ribosome preparation buffer ([…]) containing freshly added 2-mercapotethanol (4 mmol/L). Lysozyme was added to the resuspended cells and incubated on ice for 30 min. The cell suspension was disrupted six times using a FastPrep-24^TM 5G instrument (MP Biomedicals, Solon, OH, USA) with BigPrep 50 mL setting (40 s, 4.0 m/s), incubated with DNase I (5 mL/L) on ice for one hour and centrifuged (16,000× g, 30 min, 4 °C). The cell debris was removed from the supernatant by centrifugation (32,000× g, 60 min, 4 °C), and the supernatant was centrifuged again (165,000× g, 17 h, 4 °C). The pellet was resuspended in ribosome preparation buffer (0.1 mL per g cell pellet) to obtain the 70S ribosome extract and stored at −80 °C. The ribosome concentration was estimated by recording the absorbance at 260 nm (1 AU for a ribosome concentration of 28 nmol/L). The molecular weight of the 70S E. coli ribosome was assumed to be 2.3 MDa.
(§3) Kd was determined using a ribosome extract and cf-labeled peptides in ribosome preparation buffer. Briefly, black 384-well plates (flat bottom, Greiner Bio-One GmbH) were blocked with casein (0.5%, w/v) in phosphate buffer containing 0.05% (v/v) Tween 20 at 4 °C overnight and washed three times with phosphate buffer. A 2-fold dilution series of the ribosome extract (20 μL per well) in ribosome preparation buffer was prepared in a black 384-well plate (23 dilution steps). The cf-labeled peptide was dissolved in ribosome preparation buffer (20 μL, 40 nmol/L), added to each well, and incubated at 28 ± 1 °C. After 90 min, the fluorescence polarization was measured on a PARADIGMTM microplate reader (Beckman Coulter, Salzburg, Austria) in the top read position (λexc = 485 nm, λem = 535 nm) in triplicate on at least two different days. Data were fitted to a nonlinear, dose–response logistical transition equation [y= y0 + a/(1 + (x/x0)b)] using the Levenberg–Marquardt algorithm, with dissociation constants (Kd) represented by the x0 coefficients (GraphPad Prism for Windows v. 5.02, San Diego, CA, USA).

[6] = tested on: 70S ribosome extract of E. coli Rosetta DE3 pLysS; test: as above; format: binding, Escherichia coli; conditions: determined for the cf-labeled peptide, 28 °C, 90 min, 95% confidence interval in brackets, triplicate on at least two days, read-out: Kd, Ros
Experimental: as §2, §3

[7] = target: BW25113 ribosome extract, ribosomal binding site of Api137; test: Fluorescence polarization competition against cf-Api137 (Ki); parameters: species or system Escherichia coli; conditions: unlabeled PrAMP against cf-labeled Api137, calculated from IC50, 95% confidence interval in brackets
Experimental: as §2
(§4) Ki was determined for ribosome extracts using cf-labeled and unlabeled peptides in ribosome preparation buffer. Black 384-well plates were prepared as described above. Unlabeled peptides or antibiotics (20 µL, 656 µmol/L) were added and 2-fold serially diluted in 23 wells in ribosome preparation buffer. A ribosome solution was prepared by adjusting the ribosome concentration to ~90% of the upper Kd plateau obtained for the cf-labeled peptide to be studied and added to each well (10 µL). […] The fluorescence polarization was measured on a PARADIGMTM microplate reader in the top read position (λexc = 485 nm, λem = 535 nm) in triplicate on at least two different days. […] Inhibition constants, Ki, were calculated as described by Mathias and Jung.

[8] = target: BW25113 ribosome extract, ribosomal binding site of Onc112; test: Fluorescence polarization competition against cf-Onc112 (Ki); parameters: species or system Escherichia coli; conditions: unlabeled PrAMP against cf-labeled Onc112, calculated from IC50, 95% confidence interval in brackets
Experimental: as §2, §4

[9] = target: 70S ribosome extract of E. coli BW25113 (E. coli BW25113 (endogenous)); test: fluorescence polarisation; competition: unlabeled peptide (2-fold series from 656 µmol/L) pre-incubated with BW25113 ribosome extract (28 °C, 90 min), then cf-Api137 (10 µL, 80 nmol/L) added (28 °C, 90 min); ribosome preparation buffer; Ki calculated from IC50
[10] = target: 70S ribosome extract of E. coli BW25113 (E. coli BW25113 (endogenous)); test: fluorescence polarisation; competition: unlabeled peptide (2-fold series from 656 µmol/L) pre-incubated with BW25113 ribosome extract (28 °C, 90 min), then cf-Onc112 (10 µL, 80 nmol/L) added (28 °C, 90 min); ribosome preparation buffer; Ki calculated from IC50

cf-Api137 (peptide)
Kd [1]: 382 nM | Kd [2]: 198 nM

CC[C@H]1OC(=O)[C@H](C)[C@@H](O[C@H]2C[C@@](C)(OC)[C@@H](O)[C@H](C)O2)[C@H](C)[C@@H](O[C@@H]2O[C@H](C)C[C@H](N(C)C)[C@H]2O)[C@](C)(O)C[C@@H](C)C(=O)[C@H](C)[C@@H](O)[C@]1(C)O [erythromycin]
inhibition of the binding of cf-labeled Api805 [3]: none inhibited

CC[C@H](C)[C@H](NC(=O)[C@@H]1CCCN1C(=O)[C@H](CCCNC(=N)N)NC(=O)[C@H](CC(N)=O)NC(=O)[C@H](CC(N)=O)NC(=O)CN)C(=O)N[C@@H](Cc1ccc(O)cc1)C(=O)N[C@H](C(=O)N1CCC[C@H]1C(=O)N[C@@H](CCCNC(=N)N)C(=O)N1CCC[C@H]1C(=O)N[C@@H](CCCNC(=N)N)C(=O)N1CCC[C@H]1C(=O)N1CCC[C@H]1C(=O)N[C@@H](Cc1c[nH]cn1)C(=O)N1CCC[C@H]1C(=O)N[C@@H](CCCNC(=N)N)C(=O)N[C@@H](CC(C)C)C(=O)O)[C@@H](C)CC [Api801] (H-GNNRPIYIPRPRPPHPRL-OH)
MIC, Ros [4]: 4 µg/mL (≈ 1.86 µM) | MIC, BW (E. coli BW25113): 16 µg/mL (≈ 7.44 µM)

cf-Api88 (peptide)
Kd [1]: 906 nM

NC[C@H]1O[C@H](O[C@H]2[C@H](O)[C@@H](O[C@H]3O[C@H](CO)[C@@H](O)[C@H](N)[C@H]3O)[C@H](N)C[C@@H]2N)[C@H](O)[C@@H](O)[C@@H]1O [kanamycin]
inhibition of the binding of cf-labeled Api805 [3]: none inhibited

O=C(N[C@H](CO)[C@H](O)c1ccc([N+](=O)[O-])cc1)C(Cl)Cl [chloramphenicol]
inhibition of the binding of cf-labeled Api805 [3]: none inhibited

CC[C@H](C)[C@H](NC(=O)[C@@H](CCCNC(=N)N)NC(=O)[C@H](CCCNC(=N)N)NC(=O)[C@@H]1CCCN1C(=O)[C@@H]1CCCN1C(=O)[C@H](CCCNC(=N)N)NC(=O)[C@@H]1CCCN1C(=O)[C@H](CCCNC(=N)N)NC(=O)[C@@H]1CCCN1C(=O)[C@H](CC(C)C)NC(=O)[C@H](Cc1ccc(O)cc1)NC(=O)[C@@H]1CCCN1C(=O)[C@@H]1CCCN1C(=O)[C@H](CCCCN)NC(=O)[C@H](CC(=O)O)NC(=O)[C@@H](N)C(C)C)C(=O)N[C@@H](Cc1ccc(O)cc1)C(=O)N[C@@H](CC(N)=O)C(=O)N[C@H](CCCNC(=N)N)C(N)=O [Onc112] (H-VDKPPYLPRPRPPR[dR]IYN[dR]-NH2)
MIC, Ros [4]: 4 µg/mL (≈ 1.67 µM) | Kd ([5]; determined for the cf-labeled peptide, BW25113 ribosome extract, 28 °C, 90 min, 95% confidence interval in brackets, triplicate on at least two days, read-out: Kd, BW): 27 nM | Kd [6]: 51 nM | Ki [7]: 606 nM | Ki [8]: 8 nM | MIC, BW (E. coli BW25113): 4 µg/mL (≈ 1.67 µM)

cf-Api805: Api805 labeled with 5(6)-carboxyfluorescein at the N-terminus ({5(6)‑carboxyfluorescein}-GNNRPIYIPRPRPPHPRPIRV-OH)
Kd values of cf-labeled peptides, in words ([5]; 70S ribosome, refers to Table 2): nanomolar range

B1: Onc112 (peptide)
peptide: VDKPPYLPRPRPPR[dR]IYN[dR]-NH2
Ki [9]: 606 nM | Ki [10]: 8 nM

B2: Api801 (peptide)
peptide: GNNRPIYIPRPRPPHPRL-OH
Ki [9]: 2 nM | Ki [10]: 247 nM

B3: cf-Api805 (peptide)
peptide: {5(6)‑carboxyfluorescein}-GNNRPIYIPRPRPPHPRPIRV-OH
Kd [1]: 557 nM | Kd [2]: 515 nM

B4: cf-Onc112 (peptide)
peptide: {5(6)‑carboxyfluorescein}-VDKPPYLPRPRPPR[dR]IYN[dR]-NH2
Kd [1]: 27 nM | Kd [2]: 51 nM
